pIC50, pKi: −log10 of the molar value. Where two headings read alike, the source gives them in different places.

For assay [1], the target named is T1, EP3 membrane (EP3 receptor) (Homo sapiens, UniProt P43115).
T1 construct: purchased Millipore HTS092M
T1 sequence (P43115 1-390): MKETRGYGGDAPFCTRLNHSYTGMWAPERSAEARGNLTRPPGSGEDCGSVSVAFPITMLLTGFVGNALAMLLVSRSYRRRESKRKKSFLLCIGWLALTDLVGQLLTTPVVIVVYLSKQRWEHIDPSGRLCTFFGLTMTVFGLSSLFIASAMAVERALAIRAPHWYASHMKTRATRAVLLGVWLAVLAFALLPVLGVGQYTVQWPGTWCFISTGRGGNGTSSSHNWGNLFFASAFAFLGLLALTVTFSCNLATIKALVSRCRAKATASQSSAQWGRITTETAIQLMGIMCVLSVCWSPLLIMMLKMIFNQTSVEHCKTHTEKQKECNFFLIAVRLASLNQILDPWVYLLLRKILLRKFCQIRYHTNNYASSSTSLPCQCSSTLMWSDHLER
Nature of the assay: [3H]-PGE2 binding; EP3 competition binding (SPA). Particulars: for Ki: unit nM. The method, boiled down: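 SPA competition at room temperature, 2 h: EP3 membranes 2 μg/well, 2 nM [3H]-PGE2, 0.1% DMSO, in Tris/MgCl2/EDTA buffer pH 7.4. Compounds in 1:3 serial dilution; scintillation read; Ki by one-site nonlinear fit.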

Assay [2] deals with T2, CHO cells over-expressing the EP3 receptor (Homo sapiens, UniProt P43115).
T2 construct: expressed in transfected cells; host or cells: CHO cells
T2 sequence (P43115 1-390): T1 sequence (P43115 1-390)
Kind of assay: CHO cell cAMP assay; EP3 cAMP antagonist dose response (sulprostone reference), HTRF. Type of assay: cell-based. Particulars: sulprostone 700 nM (EC80) and FSK 2 μM (EC70); read-out: CHO_cAMP IC50. Put shortly:
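EP3-overexpressing CHO cells pre-incubated with test compound, then stimulated 30 min at 37 °C with FSK (2 μM, EC70) plus sulprostone (700 nM, EC80); antagonism seen as restored cAMP. cAMP measured by HTRF 665/615 ratio, converted via on-plate standard curve. IC50 from Hill fit of 11-point dosing.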
Background: Cyclic AMP is a second messenger, typically raised through Gs and lowered through Gi signalling.

With `O=C(NC/C(F)=C1\CCCc2onc(-c3ccc(Cl)cc3)c21)NS(=O)(=O)c1ccc(Cl)cc1` [Compound #97, (Z)-4-chloro-N-((2-(3-(4-chlorophenyl)-6,7-dihydrobenzo[d]isoxazol-4(5H)-ylidene)-2-fluoroethyl)carbamoyl)benzenesulfonamide], in assay [1], the pKi is 5.31. Moreover, the pIC50 in assay [2] is under 4.70.
For `O=C(CC/C=C1\COCc2cnn(Cc3ccc(Cl)cc3Cl)c21)NS(=O)(=O)c1cc(Cl)c(Cl)s1` [Compound #57, (Z)-4-(1-(2,4-dichlorobenzyl)-1,4-dihydropyrano[4,3-c]pyrazol-7(6H)-ylidene)-N-((4,5-dichlorothiophen-2-yl)sulfonyl)butanamide] the same measures were 9.00 and 8.52.
The corresponding values for `O=C(NC/C=C1\CCCc2cnn(-c3cccc(Br)c3)c21)NS(=O)(=O)c1cc(Cl)c(Cl)s1` [Compound #77, (E)-N-((2-(1-(3-bromophenyl)-1,4,5,6-tetrahydro-7H-indazol-7-ylidene)ethyl)carbamoyl)-4,5-dichlorothiophene-2-sulfonamide] are 7.92 and 6.59.
`O=C(NC/C(F)=C1/CCCc2cnn(-c3ccc4ccccc4c3)c21)NS(=O)(=O)c1ccc2c(c1)OCCO2` [Compound #110, (E)-N-((2-fluoro-2-(1-(naphthalen-2-yl)-1,4,5,6-tetrahydro-7H-indazol-7-ylidene)ethyl)carbamoyl)-2,3-dihydrobenzo[b][1,4]dioxine-6-sulfonamide]: the pKi in assay [1] is under 5.00. Moreover, the pIC50 in assay [2] is under 4.70.
For `O=C(NS(=O)(=O)c1cc(Cl)c(Cl)s1)OC/C(F)=C1/CCCc2cnn(Cc3ccc(Cl)cc3Cl)c21` [Compound #35, (E)-2-(1-(2,4-dichlorobenzyl)-1,4,5,6-tetrahydro-7H-indazol-7-ylidene)-2-fluoroethyl ((4,5-dichlorothiophen-2-yl)sulfonyl)carbamate] the same measures were 6.27 and 5.55.
In assay [1], `O=C(NC/C=C1\CCCc2cnn(-c3ccc(C(F)(F)F)cc3)c21)NS(=O)(=O)c1cc(Cl)c(Cl)s1` [Compound #85, (E)-4,5-dichloro-N-((2-(1-(4-(trifluoromethyl)phenyl)-1,4,5,6-tetrahydro-7H-indazol-7-ylidene)ethyl)carbamoyl)thiophene-2-sulfonamide] returned a Ki of 0.4 nM. The pIC50 in assay [2] is 8.40.
In assay [1], `O=C(NC/C(F)=C1\CCc2cnn(-c3ccc(C(F)(F)F)cc3)c21)NS(=O)(=O)c1cc(Cl)c(Cl)s1` [Compound #130, (Z)-4,5-dichloro-N-((2-fluoro-2-(1-(4-(trifluoromethyl)phenyl)-4,5-dihydrocyclopenta[c]pyrazol-6(1H)-ylidene)ethyl)carbamoyl)thiophene-2-sulfonamide] gave a pKi of 7.40. Further, the pIC50 in assay [2] is 6.74.
For `COc1ccc(S(=O)(=O)NC(=O)NC/C=C2\COCc3cnn(Cc4ccc(Cl)cc4Cl)c32)cn1` [Compound #67, (Z)—N-((2-(1-(2,4-dichlorobenzyl)-1,4-dihydropyrano[4,3-c]pyrazol-7(6H)-ylidene)ethyl)carbamoyl)-6-methoxypyridine-3-sulfonamide] the same measures were 7.59 and 7.13.
Compound `O=C(NC/C(F)=C1\COCc2[nH]nc(Cc3ccc(Cl)cc3Cl)c21)NS(=O)(=O)c1cc(Cl)c(Cl)s1` [Compound #147, (E)-4,5-dichloro-N-((2-(3-(2,4-dichlorobenzyl)-1,7-dihydropyrano[3,4-c]pyrazol-4(5H)-ylidene)-2-fluoroethyl)carbamoyl)thiophene-2-sulfonamide] registered a Ki in assay [1] of 0.4 nM. In assay [2], the pIC50 was 8.30.
The compound `O=C(NC/C(F)=C1\CCCc2cnn(Cc3ccc(Cl)cc3Cl)c21)NS(=O)(=O)c1cc2ccccc2s1` [Compound #121, (Z)—N-((2-(1-(2,4-dichlorobenzyl)-1,4,5,6-tetrahydro-7H-indazol-7-ylidene)-2-fluoroethyl)carbamoyl)benzo[b]thiophene-2-sulfonamide] had a pKi in assay [1] of 7.77. Further, the pIC50 in assay [2] was 6.80.
For `O=C(C/C=C1\CCCc2cnn(Cc3ccc(Cl)cc3Cl)c21)NS(=O)(=O)c1nc2ccccc2s1` [Compound #21] the same measures were 7.24 and 6.48.
For `O=C(NC/C(F)=C1\CCCc2cnn(Cc3ccc(C(F)(F)F)cc3)c21)NS(=O)(=O)c1cc2ccccc2o1` [Compound #132, (Z)—N-((2-fluoro-2-(1-(4-(trifluoromethyl)benzyl)-1,4,5,6-tetrahydro-7H-indazol-7-ylidene)ethyl)carbamoyl)benzofuran-2-sulfonamide] the same measures were 6.46 and 5.41.
The corresponding values for `COc1ccc(S(=O)(=O)NC(=O)NC/C=C2\CCCc3cnn(Cc4ccc(Cl)cc4Cl)c32)cc1` [Compound #13, (E)-N-((2-(1-(2,4-dichlorobenzyl)-1,4,5,6-tetrahydro-7H-indazol-7-ylidene)ethyl)carbamoyl)-4-methoxybenzenesulfonamide] are 8.00 and 7.54.
For the compound `COc1ccc(Cl)cc1S(=O)(=O)NC(=O)NC/C(F)=C1\CCCc2cnn(Cc3ccc(Cl)cc3Cl)c21` [Compound #89, (Z)-5-chloro-N-((2-(1-(2,4-dichlorobenzyl)-1,4,5,6-tetrahydro-7H-indazol-7-ylidene)-2-fluoroethyl)carbamoyl)-2-methoxybenzenesulfonamide], the pKi in assay [1] is 7.59. Also, in assay [2], the pIC50 is 6.80.
For `O=C(C/C=C1\CCCc2cnn(Cc3ccc(Cl)cc3Cl)c21)NS(=O)(=O)c1ccc2c(c1)OCCO2` [Compound #18, (E)-3-(1-(2,4-dichlorobenzyl)-1,4,5,6-tetrahydro-7H-indazol-7-ylidene)-N-((2,3-dihydrobenzo[b][1,4]dioxin-6-yl)sulfonyl)propenamide] the same measures were 6.83 and 6.18.
For `O=C(NC/C=C1\CCCc2cnn(-c3cccc4ccccc34)c21)NS(=O)(=O)c1cc(Cl)c(Cl)s1` [Compound #78, (E)-4,5-dichloro-N-((2-(1-(naphthalen-1-yl)-1,4,5,6-tetrahydro-7H-indazol-7-ylidene)ethyl)carbamoyl)thiophene-2-sulfonamide] the same measures were 9.00 and 8.00.
The corresponding values for `O=C(NC/C=C1\CCCc2cnn(-c3ccc(-c4ccccc4)cc3)c21)NS(=O)(=O)c1cc(Cl)c(Cl)s1` [Compound #99, (E)-N-((2-(1-([1,1′-biphenyl]-4-yl)-1,4,5,6-tetrahydro-7H-indazol-7-ylidene)ethyl)carbamoyl)-4,5-dichlorothiophene-2-sulfonamide] are 9.00 and 8.05.
Consider `O=C(CC/C=C1\CCCc2cnn(-c3cccc(-c4ccc(Cl)cc4Cl)c3)c21)NS(=O)(=O)c1cc(Cl)c(Cl)s1` [Compound #53, (E)-4-(1-(2′,4′-dichloro-[1,1′-biphenyl]-3-yl)-1,4,5,6-tetrahydro-7H-indazol-7-ylidene)-N-((4,5-dichlorothiophen-2-yl)sulfonyl)butanamide], for which the pKi in assay [1] is 8.40. Also, in assay [2], the pIC50 is 7.74.
Turning to `COc1ccc(Cl)cc1S(=O)(=O)NC(=O)NC/C(F)=C1/CCCc2cnn(-c3ccc4ccccc4c3)c21` [Compound #106, (E)-5-chloro-N-((2-fluoro-2-(1-(naphthalen-2-yl)-1,4,5,6-tetrahydro-7H-indazol-7-ylidene)ethyl)carbamoyl)-2-methoxybenzenesulfonamide], the pKi in assay [1] is under 5.00. Further, the pIC50 in assay [2] is under 4.70.
The corresponding values for `O=C(NC/C(F)=C1\CCCc2cnn(-c3ccc(C(F)(F)F)cc3)c21)NS(=O)(=O)c1cc(Cl)c(Cl)s1` [Compound #125, (Z)-4,5-dichloro-N-((2-fluoro-2-(1-(4-(trifluoromethyl)phenyl)-1,4,5,6-tetrahydro-7H-indazol-7-ylidene)ethyl)carbamoyl)thiophene-2-sulfonamide] are 8.52 and 7.70.
The corresponding values for `O=C(NC/C=C1\CCCc2cnn(Cc3ccc(Cl)cc3Cl)c21)NS(=O)(=O)c1ccc2c(c1)OCCO2` [Compound #16, (E)-N-((2-(1-(2,4-dichlorobenzyl)-1,4,5,6-tetrahydro-7H-indazol-7-ylidene)ethyl)carbamoyl)-2,3-dihydrobenzo[b][1,4]dioxine-6-sulfonamide] are 8.05 and 7.57.
For `O=C(NC/C=C1\CCCc2cnn(Cc3ccc(Cl)cc3Cl)c21)NS(=O)(=O)c1ccc(Cl)s1` [Compound #11, (E)-5-chloro-N-((2-(1-(2,4-dichlorobenzyl)-1,4,5,6-tetrahydro-7H-indazol-7-ylidene)ethyl)carbamoyl)thiophene-2-sulfonamide] the same measures were 9.00 and 8.70.
The compound `O=C(NC/C=C1\CCCc2cnn(-c3ncc(Br)cn3)c21)NS(=O)(=O)c1ccc(Cl)cc1` [Compound #94, (E)-N-((2-(1-(5-bromopyrimidin-2-yl)-1,4,5,6-tetrahydro-7H-indazol-7-ylidene)ethyl)carbamoyl)-4-chlorobenzenesulfonamide] had a pKi in assay [1] of 6.12. In assay [2], the pIC50 was 4.95.

The pKi is the Ki on a negative log10 scale, so that one unit is a factor of ten. A low value points to a high Ki. As a reminder, the pIC50 is the negative decadic logarithm of the IC50, by convention in mol/L. Usually Ki stands for the equilibrium dissociation constant of an inhibitor or competing ligand from its target. Read a low Ki as a stronger hold on the target.

For the origin of these results see patent publication US20210253562A1, “ACYLSUFONAMIDE COMPOUNDS USEFUL AS EP3 RECEPTOR ANTAGONISTS” (Janssen Pharmaceutica NV, priority 2018, published 2021).
